Experimental data reported in patent publication US20220324835A1 (Nurix Therapeutics, Inc., priority 2018, published 2022).

Columns and labels:
Cbl-b (residues 36-427) = Cbl-b (residues 36-427) (Homo sapiens, UniProt Q13191); experiment: Cbl-b binding assay (SPR, Biacore T200); details: 20° C., 1:1 binding model
Experimental: SPR data was collected on a Biacore T200 (GE Healthcare) using a NeutrAvidin (Invitrogen) capture surface that was generated on a polycarboxylate hydrogel sensor chip of medium charge density (XanTec Bioanalytics GmbH) at 20° C. The surface was prepared using 20 mM HEPES, pH 7.5, 100 mM NaCl, 0.5 mM TCEP, 0.01% Triton X-100 as the immobilization buffer. Neutravidin was coupled to the sensor chip through EDC/NHS amine coupling. All steps were performed using a flow rate of 10 μl/min. First, the chip was preconditioned with a 3-min injection of 1 M NaCl, 0.1 M Borate followed by a 10-min equilibration in immobilization buffer. The surface was activated by a 5-min injection of 100 mM EDC/50 mM NHS. Next, 250 μg/mL NeutrAvidin buffered in 10 mM sodium acetate buffer, pH 5.0 was injected over the surface for 2 min. The surface was deactivated with 1 M Tris, pH 8.5 for 7 min then re-equilibrated in immobilization buffer for 7 min. […] Flow cell 1 served as a reference surface and was prepared without protein. All binding measurements were made in 20 mM HEPES, pH 7.5, 100 mM NaCl, 0.5 mM TCEP, 0.01% Triton X-100, 2% DMSO (referred as assay buffer) at 20° C. Compounds, prepared in assay buffer, were diluted from atop concentration of either 100 μM or 50 μM using either a 2- or 3-fold dilution scheme containing 8 or 10 points. Samples were injected for 50 s at 50 μl/min. Dissociation time varied from 90-180 s, depending on anticipated potency. The surface was regenerated by injection of 0.3 M NaCl, prepared in assay buffer for 20 s at 10 μl/min. Positive and negative control samples were run between each compound to monitor surface integrity.
Column marked with an asterisk (*) were tested as described above with assay buffer containing 50 mM NaCl instead of 100 mM NaCl and 30 nM Src kinase instead of 60 nM Src kinase. The resulting data for the Cbl-b binding assay was solvent corrected and double referenced prior to analysis. All data were globally fit to a steady-state affinity and kinetic binding model where applicable). Fit parameters were derived from a 1:1 binding model using the Biacore T200 Evaluation Software V2.0 (GE Healthcare) (Table 2).

Cbl-b [1] = target: T1, Cbl-b (Homo sapiens, UniProt Q13191); experiment: Cbl-b inhibition assay (Cbl-b activity assay, FRET, Biological Example 1; 100 mM NaCl, 60 nM Src kinase); type: biochemical; details: upper bound stated in text lists; read-out: IC50 values in the Cbl-b inhibition assay of Biological Example 1
T1 sequence (Q13191 36-427): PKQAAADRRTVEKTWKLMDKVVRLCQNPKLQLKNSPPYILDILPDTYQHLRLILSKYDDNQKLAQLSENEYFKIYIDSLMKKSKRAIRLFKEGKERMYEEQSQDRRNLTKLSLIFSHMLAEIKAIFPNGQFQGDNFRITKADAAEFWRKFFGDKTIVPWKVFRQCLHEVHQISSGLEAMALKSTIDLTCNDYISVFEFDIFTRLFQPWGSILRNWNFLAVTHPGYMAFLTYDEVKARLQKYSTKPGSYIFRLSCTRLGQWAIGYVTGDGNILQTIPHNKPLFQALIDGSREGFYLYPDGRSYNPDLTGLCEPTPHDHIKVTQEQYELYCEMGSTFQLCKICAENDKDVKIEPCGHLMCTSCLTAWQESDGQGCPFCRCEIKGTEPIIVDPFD
In short: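 N-terminally biotinylated Avi-tagged Cbl-b was mixed with Src kinase, UbcH5B covalently conjugated to Bodipy-fluorescein ubiquitin, and streptavidin-terbium. Src phosphorylation lets Cbl-b bind UbcH5B-Ub, giving terbium-fluorescein FRET; inhibition is read as loss of FRET signal.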

Cbl-b [2] = target: T1, Cbl-b; experiment: Cbl-b activity assay (Cbl-b inhibition assay), TR-FRET of Cbl-b interaction with UbcH5B-Ub; type: biochemical
In short: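 Compound-treated Cbl-b was incubated 1.5 h with Src kinase (60 nM final; 30 nM for asterisked values, which also used 50 mM instead of 100 mM NaCl), 1 mM ATP and 5 mM MgCl2. Binding to fluorescent Ub-loaded UbcH5B (C85K mutant) was then read by TR-FRET after 1 h more.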

[3] = * assay buffer containing 50 mM NaCl instead of 100 mM NaCl and 30 nM Src kinase instead of 60 nM, read-out: Cbl-b activity IC50 (μM)*
[4] = assay buffer with 100 mM NaCl, 60 nM Src kinase, read-out: Cbl-b activity IC50

Cbl-b (residues 36-427), sequence (Q13191 36-427): as above

Compound | Kd (Cbl-b (residues 36-427)) [µM] | IC50 (Cbl-b [1]) [µM] | IC50 (Cbl-b [2]; [3]) [µM] | IC50 (Cbl-b [2]; [4]) [µM]
CC(Sc1nncn1C)c1cccc(NC(=O)c2ccc3c(n2)CCCC3)c1 (centres unmarked) [Compound 23, N-(3-(1-((4-Methyl-4H-1,2,4-triazol-3-yl)thio)ethyl)phenyl)-5,6,7,8-tetrahydroquinoline-2-carboxamide] | 3 to 10 | ≤ 10 | 1 to 3 | 1 to 3
Cc1cc(C(=O)Nc2cccc([C@H](C)Sc3nncn3C)c2)ncc1Cl [Compound 34, (S)-5-Chloro-4-methyl-N-(3-(1-((4-methyl-4H-1,2,4-triazol-3-yl)thio)ethyl)phenyl)picolinamide] | 1 to 3 | ≤ 0.5 | 0.301 to 1 | 0.301 to 1
C[C@H](Sc1nncn1C)c1cccc(NC(=O)c2cc(C(F)(F)F)c(Cl)cn2)c1 [Compound 40, (S)-5-Chloro-N-(3-(1-((4-methyl-4H-1,2,4-triazol-3-yl)thio)ethyl)phenyl)-4-(trifluoromethyl)picolinamide] | 3 to 10 | ≤ 10 | 3 to 10 | 1 to 3
Cc1nc(C(=O)Nc2cccc([C@H](C)Sc3nncn3C)c2)cs1 [Compound 41, (S)-2-Methyl-N-(3-(1-((4-methyl-4H-1,2,4-triazol-3-yl)thio)ethyl)phenyl)thiazole-4-carboxamide] | 1 to 3 | ≤ 10 | – | 1 to 3
C[C@H](Sc1nncn1C)c1cccc(NC(=O)c2cccc(C(F)(F)F)c2F)c1 [Compound 42, (S)-2-Fluoro-N-(3-(1-((4-methyl-4H-1,2,4-triazol-3-yl)thio)ethyl)phenyl)-3-(trifluoromethyl)benzamide] | 0.301 to 1 | ≤ 1 | – | 0.301 to 1
COc1c(C(=O)Nc2cccc([C@H](C)Sc3nncn3C)c2)cccc1C(F)(F)F [Compound 43, (S)-2-Methoxy-N-(3-(1-((4-methyl-4H-1,2,4-triazol-3-yl)thio)ethyl)phenyl)-3-(trifluoromethyl)benzamide] | > 10 | ≤ 10 | – | 3 to 10
C[C@H](Sc1nncn1C)c1cccc(NC(=O)c2cccc(-c3ccn[nH]3)c2)c1 [Compound 44, (S)-N-(3-(1-((4-Methyl-4H-1,2,4-triazol-3-yl)thio)ethyl)phenyl)-3-(1H-pyrazol-5-yl)benzamide] | 3 to 10 | ≤ 10 | – | 3 to 10
C[C@H](Sc1nncn1C)c1cccc(NC(=O)c2cccc(-c3ccnn3C)c2)c1 [Compound 45, 3-(1-Methyl-1H-pyrazol-5-yl)-N-[3-[(1S)-1-[(4-methyl-4H-1,2,4-triazol-3-yl)sulfanyl]ethyl]phenyl]benzamide] | 3 to 10 | ≤ 10 | – | 3 to 10
C[C@H](Sc1nncn1C)c1cccc(NC(=O)c2cc(CCO)ccn2)c1 [Compound 46, (S)-4-(2-Hydroxyethyl)-N-(3-(1-((4-methyl-4H-1,2,4-triazol-3-yl)thio)ethyl)phenyl)picolinamide] | 3 to 10 | ≤ 10 | – | 1 to 3
CNc1cccc(C(=O)Nc2cccc([C@H](C)Sc3nncn3C)c2)c1 [Compound 47, (S)-N-(3-(1-((4-Methyl-4H-1,2,4-triazol-3-yl)thio)ethyl)phenyl)-3-(methylamino)benzamide] | 3 to 10 | ≤ 10 | – | 3 to 10
C[C@H](Sc1nncn1C)c1cccc(NC(=O)c2nc(C(F)(F)F)ccc2N)c1 [Compound 49, (S)-3-Amino-N-(3-(1-((4-methyl-4H-1,2,4-triazol-3-yl)thio)ethyl)phenyl)-6-(trifluoromethyl)picolinamide] | 1 to 3 | ≤ 10 | – | 1 to 3
Cc1cc(C(=O)Nc2cccc([C@H](C)Sc3nncn3C)c2)[nH]c(=O)c1 [Compound 50, (S)-4-Methyl-N-(3-(1-((4-methyl-4H-1,2,4-triazol-3-yl)thio)ethyl)phenyl)-6-oxo-1,6-dihydropyridine-2-carboxamide] | > 10 | ≤ 10 | – | 3 to 10
Cc1cnc(C(=O)Nc2cccc([C@H](C)Sc3nncn3C)c2)cc1C(F)(F)F [Compound 52, (S)-5-methyl-N-(3-(1-((4-methyl-4H-1,2,4-triazol-3-yl)thio)ethyl)phenyl)-4-(trifluoromethyl)picolinamide] | > 10 | ≤ 10 | – | 3 to 10
Cc1cnc(C(=O)Nc2cccc([C@H](C)Sc3nncn3C)c2)cc1C1CC1 [Compound 53, (S)-4-cyclopropyl-5-methyl-N-(3-(1-((4-methyl-4H-1,2,4-triazol-3-yl)thio)ethyl)phenyl)picolinamide] | 3 to 10 | ≤ 10 | – | 3 to 10
CC(=O)Nc1ccnc(C(=O)Nc2cccc([C@H](C)Sc3nncn3C)c2)c1 [Compound 59, (S)-4-acetamido-N-(3-(1-((4-methyl-4H-1,2,4-triazol-3-yl)thio)ethyl)phenyl)picolinamide] | 3 to 10 | ≤ 10 | – | 1 to 3
CNc1ccnc(C(=O)Nc2cccc([C@H](C)Sc3nncn3C)c2)c1 [Compound 60, (S)-N-(3-(1-((4-methyl-4H-1,2,4-triazol-3-yl)thio)ethyl)phenyl)-4-(methylamino)picolinamide] | 3 to 10 | ≤ 10 | – | 1 to 3
C[C@H](Sc1nncn1C)c1cccc(NC(=O)c2cc(C(F)(F)F)cc(Cl)n2)c1 [Compound 66, (S)-6-chloro-N-(3-(1-((4-methyl-4H-1,2,4-triazol-3-yl)thio)ethyl)phenyl)-4-(trifluoromethyl)picolinamide] | 3 to 10 | ≤ 10 | – | 1 to 3
COc1cc(C(F)(F)F)cc(C(=O)Nc2cccc([C@H](C)Sc3nncn3C)c2)n1 [Compound 73, (S)-6-methoxy-N-(3-(1-((4-methyl-4H-1,2,4-triazol-3-yl)thio)ethyl)phenyl)-4-(trifluoromethyl)picolinamide] | 3 to 10 | ≤ 10 | – | 1 to 3
C[C@H](Sc1nncn1C)c1cccc(NC(=O)c2nc(C(F)(F)F)cs2)c1 [Compound 74, N-[3-[(1 S)-1-[(4-methyl-1,2,4-triazol-3-yl)sulfanyl]ethyl]phenyl]-4-(trifluoromethyl)thiazole-2-carboxamide] | 1 to 3 | ≤ 1 | – | 0.301 to 1
CNC(=O)COc1ccc2cnc(C(=O)Nc3cccc([C@@H](C)Sc4nncn4C)c3)cc2c1 [Compound 306b, (R)-N-(3-(1-(4-methyl-4H-1,2,4-triazol-3-ylthio)ethyl)phenyl)-6-(2-(methylamino)-2-oxoethoxy)isoquinoline-3-carboxamide] | 3 to 10 | – | – | 3 to 10
C[C@H](Sc1nncn1C)c1cccc(NC(=O)c2cc3ccc(OCC(=O)O)cc3cn2)c1 [Compound 308, (S)-2-((3-((3-(1-((4-methyl-4H-1,2,4-triazol-3-yl)thio)ethyl)phenyl)carbamoyl)isoquinolin-7-yl)oxy)acetic acid] | 3 to 10 | – | – | 1 to 3
C[C@H](Sc1nncn1C)c1cccc(NC(=O)c2ccc3c(OCC(=O)O)cccc3n2)c1 [Compound 309, (S)-2-(2-(3-(1-(4-methyl-4H-1,2,4-triazol-3-ylthio)ethyl)phenylcarbamoyl)quinolin-5-yloxy)acetic acid] | 3 to 10 | – | – | 1 to 3
CNC(=O)COc1cccc2nc(C(=O)Nc3cccc([C@H](C)Sc4nncn4C)c3)ccc12 [Compound 310, (S)-N-(3-(1-((4-methyl-4H-1,2,4-triazol-3-yl)thio)ethyl)phenyl)-5-(2-(methylamino)-2-oxoethoxy)quinoline-2-carboxamide] | 0.301 to 1 | – | – | 0.301 to 1
